Read-outs that look alike come from different tables or passages of the source.
Tests used:
Type in all cases: biochemical
[1] = molecular target: mammalian-expressed ADAM17_ECD (Homo sapiens, UniProt P78536); test: Inhibition studies; conditions: comparison of insect- and mammalian-produced ADAM17_ECD
[2] = molecular target: insect-produced ADAM17_ECD (R&D Systems) (Homo sapiens, UniProt P78536); test: ADAM17 active site titration with MMP-9/-13 inhibitor, insect-produced ADAM17
[3] = molecular target: mammalian-produced ADAM17 ECD (Homo sapiens, UniProt P78536); test: Inhibition kinetics; conditions: for Ki/Ki′ (alpha) / inhibition mechanism: mammalian-produced ADAM17 ECD; for Ki/Ki′ (alpha): mixed-model inhibition; for inhibition mechanism: confirmed by Lineweaver-Burke plots
mammalian-produced ADAM17 ECD, sequence (P78536 215-651 limits assumed): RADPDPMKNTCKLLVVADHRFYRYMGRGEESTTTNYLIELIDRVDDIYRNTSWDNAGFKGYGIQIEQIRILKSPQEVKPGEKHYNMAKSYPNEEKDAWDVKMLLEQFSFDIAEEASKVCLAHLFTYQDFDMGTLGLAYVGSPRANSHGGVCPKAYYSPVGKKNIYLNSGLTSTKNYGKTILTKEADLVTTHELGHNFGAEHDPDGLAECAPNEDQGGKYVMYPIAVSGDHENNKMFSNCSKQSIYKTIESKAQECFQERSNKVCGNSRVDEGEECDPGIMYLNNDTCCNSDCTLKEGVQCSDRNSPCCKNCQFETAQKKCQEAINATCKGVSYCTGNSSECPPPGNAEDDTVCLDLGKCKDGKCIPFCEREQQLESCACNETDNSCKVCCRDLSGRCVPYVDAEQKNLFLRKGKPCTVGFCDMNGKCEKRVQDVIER

[4] = molecular target: insect-produced ADAM17 ECD (Homo sapiens, UniProt P78536); test: Inhibition kinetics; conditions: for Ki/Ki′ (alpha) / inhibition mechanism: insect-produced ADAM17 ECD; for Ki/Ki′ (alpha): mixed-model inhibition; for inhibition mechanism: confirmed by Lineweaver-Burke plots
insect-produced ADAM17 ECD, sequence (P78536 215-671 limits assumed): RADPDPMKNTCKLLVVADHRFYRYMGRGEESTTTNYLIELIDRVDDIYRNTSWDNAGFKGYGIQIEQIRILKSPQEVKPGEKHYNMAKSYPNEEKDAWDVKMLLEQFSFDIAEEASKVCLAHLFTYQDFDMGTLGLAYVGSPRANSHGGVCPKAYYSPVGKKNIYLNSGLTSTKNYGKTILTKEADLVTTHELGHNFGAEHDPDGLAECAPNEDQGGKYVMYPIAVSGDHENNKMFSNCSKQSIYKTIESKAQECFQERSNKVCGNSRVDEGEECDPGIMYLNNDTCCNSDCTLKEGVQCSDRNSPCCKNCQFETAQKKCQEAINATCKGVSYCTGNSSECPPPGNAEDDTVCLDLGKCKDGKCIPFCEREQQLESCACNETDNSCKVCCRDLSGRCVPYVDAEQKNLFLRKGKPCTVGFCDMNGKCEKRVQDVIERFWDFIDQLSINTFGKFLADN

mammalian-expressed ADAM17_ECD, sequence (P78536 215-651 limits assumed): as the sequence (P78536 215-651 limits assumed) above
insect-produced ADAM17_ECD (R&D Systems), sequence (P78536 215-671 limits assumed): as the sequence (P78536 215-671 limits assumed) above

SMILES	dose response curves for inhibition of insect- versus mammalian-expressed ADAM17 [1]	stoichiometry of ADAM17_ECD and MMP-9/-13 inhibitor (factor) ([2]; 10.5 nM divided by enzyme concentration 0.4 nM, Fig. 5B)	concentration of inhibitor necessary to produce 100% inhibition of ADAM17 ([2]; titration, enzyme concentration 0.4 nM, Fig. 5A) [nM]	Ki [3] [nM]	Ki/Ki′ (alpha) [3]	inhibition mechanism ([3]; non-linear regression)	Ki [4] [nM]	Ki/Ki′ (alpha) [4]	inhibition mechanism ([4]; non-linear regression)	Ki ([3]; mammalian-produced ADAM17, mixed inhibition model, non-linear regression) [nM]	Ki ([4]; insect-produced ADAM17, mixed inhibition model, non-linear regression) [nM]
CC(=O)NO [AHA, N-acetohydroxamic acid]	superimposable	–	–	–	–	–	–	–	–	–	–
COc1ccc(S(=O)(=O)N2CCN(C(=O)c3ccc(-c4ccccc4)cc3)CC2C(=O)NO)cc1 (centres unmarked) [MMP-9/-13 inhibitor, N-hydroxy-1-(4-methoxyphenyl)sulfonyl-4-(4-biphenylcarbonyl)piperazine-2-carboxamide]	superimposable	26.3	10.5	1.8 ± 0.1	0.99 ± 0.34	pure non-competitive inhibition	3.1 ± 0.2	0.91 ± 0.26	pure non-competitive inhibition	–	–
CC(C)C[C@H](CC(=O)NO)C(=O)N[C@H](C(=O)N[C@@H](C)C(=O)NCCN)C(C)(C)C [TAPI-2]	superimposable	–	–	–	2.27 ± 0.55	mixed inhibition	–	1.76 ± 0.42	mixed inhibition	32 ± 5	31 ± 1.4
